Laboratory results published in PubChem BioAssay (NCI).
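These data come from cells grown in 96-well plates and exposed to compound for 48 hours at five concentrations. GI50 is the concentration that inhibits growth by half. Definition used: TGI = concentration required for complete inhibition of growth.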

Legend:
Test in all cases: NCI tumour cell line growth inhibition, 48 h
ACHN renal = system: ACHN renal
HCT-15 colon = system: HCT-15 colon
SK-OV-3 ovarian = system: SK-OV-3 ovarian
NCI-H522 lung = system: NCI-H522 lung
TK-10 renal = system: TK-10 renal
HCT-116 colon = system: HCT-116 colon
HT29 colon = system: HT29 colon
OVCAR-5 ovarian = system: OVCAR-5 ovarian
EKVX NSCLC = system: EKVX NSCLC
786-0 renal = system: 786-0 renal

Structure (SMILES)	TGI (ACHN renal) [µM]	TGI (HCT-15 colon) [µM]	TGI (SK-OV-3 ovarian) [µM]	TGI (NCI-H522 lung) [µM]	TGI (TK-10 renal) [µM]	TGI (HCT-116 colon) [µM]	TGI (HT29 colon) [µM]	TGI (OVCAR-5 ovarian) [µM]	TGI (EKVX NSCLC) [µM]	TGI (786-0 renal) [µM]	GI50 (ACHN renal) [µM]	GI50 (HCT-15 colon) [µM]	GI50 (SK-OV-3 ovarian) [µM]	GI50 (NCI-H522 lung) [µM]	GI50 (TK-10 renal) [µM]	GI50 (HCT-116 colon) [µM]	GI50 (HT29 colon) [µM]	GI50 (OVCAR-5 ovarian) [µM]	GI50 (EKVX NSCLC) [µM]	GI50 (786-0 renal) [µM]
O[C@]12CCCC[C@H]1CCC2	> 100	> 100	> 100	> 100	> 100	> 100	> 100	> 100	> 100	> 100	–	–	–	–	–	–	–	–	–	–
CC(=S)NNC(=O)c1ccncc1	> 100	> 100	> 100	> 100	> 100	> 100	> 100	> 100	> 100	> 100	–	–	–	–	–	–	–	–	–	–
CNC1NC(=O)c2ccccc2N1Cc1ccc(F)cc1 (stereo not given)	> 100	> 100	> 100	> 100	> 100	> 100	> 100	> 100	> 100	> 100	–	–	–	–	–	–	–	–	–	–
NC(=NC1CCCCCC1)c1ccc(N2CCN(c3ccc(C(N)=NC4CCCCCC4)cc3)CC2)cc1	> 50	> 50	44.9	23.9	> 50	48.8	> 50	> 50	23	43.9	46.4	24.3	15.7	5.42	14.6	10.2	9.3	25.4	1.44	10.7
CN1CCN(Cc2ccc(NC(=O)c3[nH]ncc3Nc3ncnc4c3CCC4)cc2)CC1	9.09	12.6	17.5	8.79	8.85	11.4	8.79	16.2	6.6	11	1.32	1.67	0.185	1.54	4.02	0.454	2.17	3.59	2.38	2.24
CC(=O)Oc1cccc2c1C(=O)C(Br)(Br)CCC2	12.8	29.4	24.9	4.55	30.8	9.66	14	21.9	26.7	11.4	–	–	–	–	–	–	–	–	–	–
CCc1oc2ccccc2c1C(=O)c1cc(Br)c(O)c(Br)c1	31.3	76.2	> 100	43.1	64.9	55.7	74.7	46.1	95.2	55.6	–	–	–	–	–	–	–	–	–	–
COc1cc(-c2cn(-c3ccc(Cl)cc3)c(=O)[nH]2)cc(OC)c1OC	> 100	> 100	> 100	> 100	> 100	> 100	> 100	> 100	> 100	> 100	> 100	> 100	> 100	> 100	> 100	> 100	> 100	> 100	> 100	> 100
O=C(Nc1ccncc1)C(=O)c1cn(S(=O)(=O)c2ccccc2F)c2ccccc12	> 70.9	> 100	36.6	4.09	> 49.3	> 37.8	> 31.9	98.2	> 100	40.9	5.21	0.546	12	0.371	9.71	0.504	0.45	5.38	3.72	4.95
CC(C)(C)C(=O)C(c1ccc(-c2cscn2)cc1)c1ccc(-c2cscn2)cc1	> 100	> 100	65.3	> 100	92	> 100	> 100	> 100	> 100	78.7	–	–	–	–	–	–	–	–	–	–
CCC(C)/C=C(C)/C=C/C(=O)c1c(O)c(-c2ccc(O)cc2)c[nH]c1=O (stereo not given)	14.2	12.6	29.4	10.8	15.3	13.1	14.6	23.5	17.6	16.7	3.53	2.4	6.32	3.3	4.32	3.39	3.77	6.1	4.08	4.33
Cc1ccc(NC2=C(Sc3ccc(Cl)cc3)C(=O)N(Cc3ccccc3)C2=O)cc1Cl	17.1	> 100	45.7	14.9	68.3	15	> 100	25.1	> 100	22.4	4.91	10.6	18.2	3.62	11.7	3.6	10.4	10.5	26.7	10.3
CN(/N=N/c1nc(OCc2ccccc2)c2[nH]cnc2n1)C(=O)N(C)/N=N/c1nc(OCc2ccccc2)c2[nH]cnc2n1	> 100	> 100	> 100	> 100	> 100	> 100	> 100	> 100	> 100	> 100	31.3	35.4	42.1	39.4	27.2	35.2	60.5	63.7	38.3	59.7
COc1cc2c(cc1OC)[C@@H](C(O)c1ccccc1)NCC2 (stereo not given in full)	> 100	> 100	> 100	> 100	> 100	> 100	> 100	> 100	> 100	> 100	–	–	–	–	–	–	–	–	–	–
O=C(CNC(=O)c1cccc2ccccc12)Nc1ccccc1Oc1ccccc1	> 10	> 10	4.34	0.612	> 10	> 10	1.07	> 10	> 10	> 10	0.833	0.245	0.398	0.151	0.619	0.322	0.29	0.521	0.778	0.449
